Experimental data: ChEMBL document CHEMBL4673289, “Design, synthesis and biological evaluation of imidazolopyridone derivatives as novel BRD4 inhibitors” (Bioorg Med Chem, 2021)
Active and inactive are the calls of the source. The rule behind the calls is not given here.

What was measured:
BXPC-3 [1] = assay: Cell cycle arrest in human BXPC-3 cells assessed as decrease in cell population at G2/M phase at 4 to 16 uM measured after 48 hrs by AnnexinV-FITC/propidium iodide staining based flow cytometry; assay type: functional; settings: dose 4-16 µM
Mus musculus [2] = assay: Decrease in c-Myc expression in BALB/c mouse allografted with mouse Panc02 cells […] at 50 mg/kg, ip administered every day measured after 20 days by immunohistochemical analysis; assay type: functional, organism-based; settings: time 20.0 day
SMMC-7721 = assay: Antiproliferative activity against human SMMC-7721 cells assessed as cell growth inhibition at 2 uM measured after 48 to 72 hrs by MTT assay relative to control; assay type: functional; settings: time 48-72 hrs, read-out: GI
BXPC-3 [3] = assay: Induction of apoptotic cell death in human BXPC-3 cells at 4 to 16 uM measured after 48 hrs by Live/Dead dye based inverted fluorescence microscopic analysis; assay type: functional; settings: dose 4-16 µM
Panc02 [4] = assay: Induction of apoptosis in mouse Panc02 cells allografted in BALB/c mouse assessed as condensed chromatin at 50 mg/kg, ip administered every day measured after 20 days by hematoxylin and eosin staining based assay; assay type: functional, organism-based; settings: time 20.0 day
[5] = molecular target: T1, Bromodomain-containing protein 4 (Homo sapiens, UniProt O60885); assay: Inhibition of BRD4 (unknown origin) preincubated for 15 mins followed by substrate addition and measured after 1 hr by AlphaScreen assay relative to control
PANC-1 = assay: Antiproliferative activity against human PANC-1 cells assessed as cell growth inhibition at 2 uM measured after 48 to 72 hrs by MTT assay relative to control; assay type: functional; settings: time 48-72 hrs, read-out: GI
BXPC-3 [6] = assay: Cell cycle arrest in human BXPC-3 cells assessed as accumulation at G1/S phase by measuring upregulation of p57 measured after 48 hrs by Western blot analysis; assay type: functional, cell-based; settings: dose 4-16 µM
[7] = Toxicity in BALB/c mouse allografted with mouse Panc02 cells assessed as effect on body weight at 50 mg/kg, ip administered every day measured after 19 days; assay type: organism-based; settings: in vivo, 456 h, time 19 day
Panc02 [8] = assay: Induction of apoptosis in mouse Panc02 cells allografted in BALB/c mouse assessed as condensed chromatin at 50 mg/kg, ip administered every day in combination with gemcitabine at 100 mg/kg measured after 20 days by hematoxylin and eosin staining based assay; assay type: functional, organism-based; settings: time 20.0 day
BXPC-3 [9] = assay: Cell cycle arrest in human BXPC-3 cells assessed as acumulation at G0/G1 phase by measuring downregulation of CDK4 at 4 to 16 uM measured after 48 hrs by Western blot analysis; assay type: functional, cell-based; settings: dose 4-16 µM
BXPC-3 [10] = assay: Antiproliferative activity against human BXPC-3 cells assessed as cell growth inhibition at 2 uM measured after 48 to 72 hrs by MTT assay relative to control; assay type: functional; settings: time 48-72 hrs, read-out: GI
BXPC-3 [11] = assay: Cell cycle arrest in human BXPC-3 cells assessed as acumulation at G0/G1 phase by measuring downregulation of CyclinD1 at 4 to 16 uM measured after 48 hrs by Western blot analysis; assay type: functional, cell-based; settings: dose 4-16 µM
BXPC-3 [12] = assay: Antiproliferative activity against human BXPC-3 cells assessed as cell growth inhibition measured after 48 to 72 hrs by MTT assay; assay type: functional, cell-based; settings: dose 2-32 µM, time 48-72 hrs
BXPC-3 [13] = assay: Cell cycle arrest in human BXPC-3 cells assessed as accumulation at sub-G1 phase at 8 to 16 uM measured after 48 hrs by AnnexinV-FITC/propidium iodide staining based flow cytometry; assay type: functional; settings: dose 8-16 µM
BXPC-3 [14] = assay: Induction of apoptosis in human BXPC-3 cells assessed as early apoptotic cells at 8 uM measured after 48 hrs by AnnexinV/propidium iodide staining based flow cytometry (reference value: 1.02 %); assay type: functional
BXPC-3 [15] = assay: Induction of apoptosis in human BXPC-3 cells assessed as late apoptotic cells at 16 uM measured after 48 hrs by AnnexinV/propidium iodide staining based flow cytometry (reference value: 1.02 %); assay type: functional
BXPC-3 [16] = assay: Induction of apoptosis in human BXPC-3 cells assessed as activation of caspase 3 at 4 to 16 uM measured after 48 hrs by Western blot analysis; assay type: functional, cell-based; settings: dose 4-16 µM
BXPC-3 [17] = assay: Induction of apoptosis in human BXPC-3 cells assessed as late apoptotic cells at 4 uM measured after 48 hrs by AnnexinV/propidium iodide staining based flow cytometry (reference value: 5.15 %); assay type: functional
BXPC-3 [18] = assay: Induction of apoptosis in human BXPC-3 cells assessed as upregulation of caspase 3 at 4 to 16 uM measured after 48 hrs by Western blot analysis; assay type: functional, cell-based; settings: dose 4-16 µM
BXPC-3 [19] = assay: Induction of apoptosis in human BXPC-3 cells assessed as increase in cleaved PARP expression at 4 to 16 uM measured after 48 hrs by Western blot analysis; assay type: functional, cell-based; settings: dose 4-16 µM
BXPC-3 [20] = assay: Cell cycle arrest in human BXPC-3 cells assessed as acumulation at G0/G1 phase by measuring upregulation of p27 at 4 to 16 uM measured after 48 hrs by Western blot analysis; assay type: functional, cell-based; settings: dose 4-16 µM
Panc02 [21] = assay: Antitumor activity against mouse Panc02 allografted in BALB/c mouse assessed as reduction in tumor weight at 50 mg/kg, ip administered every day for 20 days relative to control; assay type: functional; settings: 480 h, time 20 day, read-out: TGI
BXPC-3 [22] = assay: Cell cycle arrest in human BXPC-3 cells assessed as accumulation at G0/G1 phase measured after 48 hrs by AnnexinV-FITC/propidium iodide staining based flow cytometry; assay type: functional; settings: dose 4-16 µM
BXPC-3 [23] = assay: Anticlonogenic activity against human BXPC-3 cells assessed as reduction in colony formation at 0.25 umol/L incubated for 10 days by crystal violet staining based assay; assay type: functional, cell-based; settings: dose 0.25 µmol/L, time 10.0 day
Mus musculus [24] = assay: Upregulation of caspase 3 in BALB/c mouse allografted with mouse Panc02 cells […] at 50 mg/kg, ip administered every day in combination with gemcitabine at 100 mg/kg measured after 20 days by immunohistochemical analysis; assay type: functional, organism-based; settings: time 20.0 day
Mus musculus [25] = assay: Decrease in c-Myc expression in BALB/c mouse allografted with mouse Panc02 cells […] at 50 mg/kg, ip administered every day in combination with gemcitabine at 100 mg/kg measured after 20 days by immunohistochemical analysis; assay type: functional, organism-based; settings: time 20.0 day
[26] = molecular target: T1, Bromodomain-containing protein 4; assay: Inhibition of BRD4 (unknown origin) at 1 uM preincubated for 15 mins followed by substrate addition and measured after 1 hr by AlphaScreen assay relative to control; settings: time 75.0 min
Mus musculus [27] = assay: Upregulation of caspase 3 in BALB/c mouse allografted with mouse Panc02 cells […] at 50 mg/kg, ip administered every day measured after 20 days by immunohistochemical analysis; assay type: functional, organism-based; settings: time 20.0 day
BXPC-3 [28] = assay: Induction of apoptosis in human BXPC-3 cells assessed as early apoptotic cells at 16 uM measured after 48 hrs by AnnexinV/propidium iodide staining based flow cytometry (reference value: 1.02 %); assay type: functional
BXPC-3 [29] = assay: Induction of apoptosis in human BXPC-3 cells assessed as increase in cytochrome C expression at 4 to 16 uM measured after 48 hrs by Western blot analysis; assay type: functional, cell-based; settings: dose 4-16 µM
BXPC-3 [30] = assay: Induction of apoptosis in human BXPC-3 cells assessed as late apoptotic cells at 8 uM measured after 48 hrs by AnnexinV/propidium iodide staining based flow cytometry (reference value: 5.15 %); assay type: functional
[31] = molecular target: T1, Bromodomain-containing protein 4; assay: Inhibition of BRD4 in human BXPC-3 cells assessed as blocking of BRD4-pTEFB interaction; assay type: cell-based
BXPC-3 [32] = assay: Inhibition of BRD4 protein expression in human BXPC-3 cells at 4 to 16 uM measured after 48 hrs by Western blot analysis; assay type: functional, cell-based; settings: dose 4-16 µM

IC50 [5]: 35 nM | inhibition [26]: 100% | inhibition [31]: Active
Compound: CCS(=O)(=O)Nc1ccc(Oc2ccccc2F)c(-c2cn(C)c(=O)c3cncn23)c1
Activity (BXPC-3 [1]): Active | Activity (Mus musculus [2]): Active | inhibition of growth at 2 µM (SMMC-7721): 15.1% | Activity (BXPC-3 [3]): Active | Activity (Panc02 [4]): Active | inhibition of growth at 2 µM (PANC-1): 16.5% | Activity (BXPC-3 [6]): Active | Activity [7]: Non-Toxic | Activity (Panc02 [8]): Active | Activity (BXPC-3 [9]): Active | inhibition of growth at 2 µM (BXPC-3 [10]): 38.4% | Activity (BXPC-3 [11]): Active | growth inhibition (GI) (BXPC-3 [12]): Dose-dependent effect | Activity (BXPC-3 [13]): Active | Activity (BXPC-3 [14]): 1.61% | Activity (BXPC-3 [15]): 19.21% | Activity (BXPC-3 [16]): Active | Activity (BXPC-3 [17]): 8.59% | Activity (BXPC-3 [18]): Active | Activity (BXPC-3 [19]): Active | Activity (BXPC-3 [20]): Active | inhibition in vivo at 50 mg/kg (Panc02 [21]): 79% | Activity (BXPC-3 [22]): Dose-dependent effect | Activity (BXPC-3 [23]): Active | Activity (Mus musculus [24]): Active | Activity (Mus musculus [25]): Active | Activity (Mus musculus [27]): Active | Activity (BXPC-3 [28]): 2.35% | Activity (BXPC-3 [29]): Active | Activity (BXPC-3 [30]): 12.36% | inhibition (BXPC-3 [32]): Active
